Experimental data: ChEMBL document CHEMBL3301361, “Experimental in vitro DMPK and physicochemical data on a set of publicly disclosed compounds”

assay: physchem; details: octan-1-ol/water, pH 7.4

Structure (SMILES)	logD
NC(=O)c1cccc(O[C@@H]2C[C@H]3CC[C@@H](C2)N3CCc2ccccc2)c1	2
Nc1nc(Nc2ccc3nc(-c4ccc(F)cc4)cc(N)c3c2)cc(-c2ccc(C(F)(F)F)cc2)n1	1.54
CCN1CCN(C(=O)c2cc3cc(F)ccc3[nH]2)CC1	2.28
c1ccc2c(OCC3=NCCN3)cccc2c1	0.68
Nc1nnc(Cc2ccc(Cl)cc2)s1	2.34
NC(Cc1ccccc1)c1ccccc1 (centres undefined)	1.32
Nc1ncnc2oc(-c3ccoc3)c(-c3ccco3)c12	3.1
c1ccc2ncccc2c1 [QUINOLINE]	2.09
Cc1cc2c(C(C)C)c(O)c(O)c(C=O)c2c(O)c1-c1c(C)cc2c(C(C)C)c(O)c(O)c(C=O)c2c1O [GOSSYPOL]	2.75
COCCCOc1ccnc(C[S+]([O-])c2nc3ccccc3[nH]2)c1C (centres undefined) [RABEPRAZOLE]	-0.69
CCOC(=O)C1(c2cccc(O)c2)CCCN(CC2CC2)C1 (centres undefined)	1.89
CN1CC=CCC(c2ccc(Cl)c(Cl)c2)C1 (centres undefined)	3.32
CN1CCN(C(=O)c2ccc(C(=C3CCN(Cc4cscn4)CC3)c3cccc4cccnc34)cc2)CC1	1.98
COc1cccc(COCC(O)CN2CCC(C(N)=O)CC2)c1 (centres undefined)	-0.5
CNC(=O)c1ccc(Nc2nccc(-c3cnc(C4CC4)n3C(C)C)n2)cc1	2.77
COC(=O)C1C(OC(=O)c2ccccc2)CC2CCC1N2C (centres undefined)	1.06
NC(=O)c1cccc(O[C@H]2C[C@H]3CC[C@@H](C2)N3Cc2ccccc2)n1	1.71
Cc1cc(N)c2cc(NC(=O)CC(=O)Nc3ccc4nc(C)cc(N)c4c3)ccc2n1	1.35

same assay, conditions: octan-1-ol/water, pH 7.4, LogD7.4

Structure (SMILES)	logD
O=c1ccnc2ccccn12	0.2
CC[C@H](NC(=O)c1c(CN(C)C)c(-c2ccccc2)nc2ccccc12)c1ccccc1	4.18
CC(O)(C(=O)Nc1ccc(S(=O)(=O)c2ccc(O)cc2)cc1)C(F)(F)F (centres undefined)	2.78
CS(=O)(=O)c1ccccc1C(=O)NC[C@@H](O)CN1CCC(Oc2ccc(Cl)c(Cl)c2)CC1	2.34
COc1cc(F)ccc1-c1cc(CNC2CCCC2)ccn1	1.71
COc1cc2nc(Nc3ccc([C@@H](C)NC(C)=O)cc3)ncc2cc1-c1ccncc1	3.11
N#Cc1cccc(C(=O)Nc2cc(-c3ccccc3)nn2-c2ccccc2)c1	3.82
Clc1ccc(-c2cn3ccccc3n2)cc1	4
COc1cc(C(=O)NS(=O)(=O)c2ccccc2)ccc1Cn1ccc2ccc(C(=O)NCC3CCCC3)cc21	1.93
CC1(c2ccc(Cl)c(Cl)c2)CC(=O)NC(N)=N1 (centres undefined)	1.59
Oc1ncnc2onc(-c3ccc(F)cc3)c12	1.97
COc1ccc2c(C)cc(=O)n(CCN3CCC(NCc4cc5c(cn4)OCCO5)CC3)c2c1	1.72
COc1cc(N2CCN(C(C)=O)CC2)ccc1Nc1ncc(Cl)c(-c2cnc3c(OC)cccn23)n1	3.5
Cn1cncc1-c1c2c(=O)n(CC3CC3)c(=O)n(CC3CC3)c2nn1Cc1ccnc2ccc(Cl)cc12	4.33
Cn1cnc2cc(C#Cc3ccccc3)cnc21	3.5
Cc1ccc(NC(=O)c2ccnc(N3CCOCC3)c2)cc1Nc1ccnc(OCC2CCCN(C)C2)n1 (centres undefined)	1.9
CCN(c1ccccc1)c1cc(NC)[n+](C)c(C)n1	-0.91
Cc1ccnc(NS(=O)(=O)c2ccc(N)cc2)n1 [SULFAMERAZINE]	-0.51
CN(C)CCCC(NC(=O)C1(N)CCN(c2ncnc3[nH]ccc23)CC1)c1ccc(Cl)cc1 (centres undefined)	1.4
Cc1cc(Cl)ccc1N1CCN(C(=O)COCc2ccncc2)CC1	3.22
O=C(COCc1cscn1)N1CCN(c2ccc(Cl)cc2Cl)CC1	3.07
Cn1ccc2c(-c3nc(CS(C)(=O)=O)cc(N4CCOCC4)n3)cccc21	2
Cc1ccc(-c2nccn2C)cc1NC(=O)c1ccc(OCc2ccccn2)cc1	2.83

Structure (SMILES)	logD
CC(C)C(=O)Nc1ccc2c(c1)C(=O)NC2=O	1.55
O=c1ccoc2cc(OCc3ccccc3)ccc12	3.33
Nc1ccc2ncccc2c1	1.33
CN(C)c1nc(N[C@H]2CC[C@@H](NC(=O)c3ccc(F)c(F)c3)CC2)nc2ccccc12	3.13
O=C(COCc1ccncc1)N1CCC(c2ccc(Cl)cc2Cl)CC1	2.63
c1ccc(CNc2nc3ccccc3[nH]2)cc1	2.76
Cc1nnsc1C(=O)Nc1ccccc1	0.97
CC(C)(C(N)=O)C(=O)NCCCNc1nc(Nc2cccc(NC(=O)N3CCCC3)c2)ncc1Br	2.32
O=C(c1cc2cc(Cl)ccc2[nH]1)N1CCNCC1	1.65
Nc1n[nH]c2ccccc12	1
CC(C)Cn1c(=O)n(C)c(=O)c2c(C(=O)N3CCCC3)c(Cc3ccccc3C(F)(F)F)sc21	3.8
O=C1CCOc2nc(/C=C/c3ccccc3)ccc21	3.2
CC(C)C(NC(=O)Cn1c(-c2ccccc2)cc2c(=O)n(CCN3CCOCC3)c(=O)[nH]c2c1=O)C(=O)C(F)(F)F (centres undefined)	1.91
Cc1nc2ccc(NC(=O)CCNC(N)=O)cc2s1	0.9
CC(=O)Nc1ccc2c(c1)c(-c1cc(NC3CC3)n3ncc(C#N)c3n1)cn2CCC(=O)O	-0.87
CN[C@@H](C)C(=O)N[C@H](C(=O)N[C@H]1CCCN(CCc2cccc(F)c2)C1)C1CCCCC1	2.64
C[C@H](Oc1ccc(S(C)(=O)=O)cc1C(=O)N1CCN(c2ncc(C(F)(F)F)cc2F)CC1)C(F)(F)F [BITOPERTIN]	3.49
CC(C)C(NC(=O)Cn1c(-c2ccccc2)ccc(NS(N)(=O)=O)c1=O)C(=O)C(F)(F)F (centres undefined)	1.17
COC(Cn1c(=O)[nH]c2c(=O)n(CC(=O)NC(C(=O)C(F)(F)F)C(C)C)c(-c3ccccc3)cc2c1=O)OC (centres undefined)	1.56
O=C(CC1CCN(Cc2ccn(-c3ccc(C(F)(F)F)cc3)c2)CC1)NC(c1ccc(F)cc1)c1ccc(=O)[nH]c1 (centres undefined)	3.04
Cc1nc(C(=O)N2CCCC3(CCN(Cc4ccc(Cl)cc4)CC3)C2)cs1	0.64
C[S+]([O-])CCN1C(=O)C(NC(=O)c2cc3cc(Cl)sc3[nH]2)Cc2ccccc21 (centres undefined)	3.17
COc1cc2ncnc(Nc3ccc(F)cc3)c2cc1OC	3.1

Structure (SMILES)	logD
COCCNC(=O)c1ccc(Nc2ncc3cc(-c4ccnc(C)c4)ccc3n2)cc1	3.56
COc1cc(N2CCN(C(C)=O)CC2)ccc1Nc1ncc(Cl)c(-c2cnc3cc(Cl)ccn23)n1	4.2
CC(C)C(NC(=O)Cn1c(-c2cccs2)ncc(NC(=O)OCc2ccccc2)c1=O)C(=O)C(F)(F)F (centres undefined)	2.02
Cc1ncc(CO)c(CO)c1O [PYRIDOXINE]	-0.58
Cc1ncc(-c2nc(Nc3ccc(C(=O)NCCN(C)C)c(F)c3)ncc2F)n1C(C)C	2.26
Cn1c(=O)c2c(ncn2CC(O)CO)n(C)c1=O (centres undefined) [DYPHYLLINE]	-1.25
Cc1cc(C)cc(-c2c(O)nc3cc(Cl)c(C(=O)Nc4ccncn4)cc3c2OCCC2CCCCN2)c1 (centres undefined)	1.7
O=C(C1CCCCC1)N1CC(=O)N2CCc3ccccc3C2C1 (centres undefined) [PRAZIQUANTEL]	2.43
CS(=O)(=O)NCC(NC(=O)C1(N)CCN(c2ncnc3[nH]ccc23)CC1)c1ccc(Cl)cc1 (centres undefined)	2.1
COc1cc2ncc(C(N)=O)c(Nc3cc(C)ccc3F)c2cc1OC	3.16
CN1CC=CCC(c2cc3ccccc3o2)C1 (centres undefined)	2.47
Cn1c(-c2ccccc2)cc2onc(-c3ccncc3)c2c1=O	3.17
COc1cc(N2CCN(C(C)=O)CC2)ccc1Nc1ncc(Br)c(-c2cnc3ccccn23)n1	3.7
C=C(CC)C(=O)c1ccc(OCC(=O)O)c(Cl)c1Cl [ETHACRYNIC ACID]	0.02
Nc1nc2nc(SCc3ccccc3)nc(N)c2s1	3.1
Cc1ccc(CO)cc1N(C)c1ccnc(Nc2cc(OC3CCOCC3)cc(N3CCOCC3)c2)n1	3.7
Oc1nc(S)nc2nc[nH]c12	-1.48
CCOc1ccc(Oc2ccc(S(=O)(=O)NC(=O)c3cccc(-c4ccc(Cl)c(Cl)c4)c3)cc2)cc1	2.94
OCCOCCN1CCN(C(c2ccccc2)c2ccc(Cl)cc2)CC1 (centres undefined) [HYDROXYZINE]	3.08
CCCc1c(OCc2ccc(C(=O)O)c(Br)c2)ccc(C(C)=O)c1O	2.3
N#Cc1ccccc1Oc1ccc(C(=O)NCc2ccncc2)cc1	2.57
CCN1CCN(C(=O)c2cc3cc(Cl)ccc3[nH]2)CC1	3.14
Cc1ccc(Oc2cccc(CN3CCCC(n4cc(C)c(=O)[nH]c4=O)C3)c2)cc1 (centres undefined)	3.38

Structure (SMILES)	logD
CCCSc1ncccc1C(=O)N1CCCC1c1ccncc1 (centres undefined)	1.95
Cc1ccc(-c2cn(C)cn2)cc1NC(=O)c1ccc(OCc2ccccn2)cc1	2.54
CC(C)C(NC(=O)Cn1c(-c2ccccc2)ccc(NC(=O)NCc2cccnc2)c1=O)C(=O)C(F)(F)F (centres undefined)	2.84
O=C1Nc2ccc(S(=O)(=O)N3CCC[C@H]3COc3ccccc3)cc2C1=O	2.7
CN(C)CC(O)COc1ccc(Nc2cc(N(CCC#N)c3cc(Cl)ccc3Cl)ncn2)cc1 (centres undefined)	2.1
O=C(c1cc(Cc2n[nH]c(=O)c3ccccc23)ccc1F)N1CCN(c2ccccn2)CC1	2.55
O=C(O)CSc1c[nH]c2ccccc12	-1.31
N=C(N)Nc1ccc(C(=O)Oc2ccccc2)cc1	-0.21
NC1(C(=O)NC(CCCN2CCOCC2)c2ccc(Cl)cc2)CCN(c2ncnc3[nH]ccc23)CC1 (centres undefined)	2.7
Cc1ccccc1C(=O)N1CCN(c2ccccn2)CC1	2.18
COc1ccc(-c2nc3c(NCC4CCNCC4)c(Br)cnc3[nH]2)cc1	1.36
C[C@H](CO)Nc1nc(SCc2cccc(F)c2F)nc2[nH]c(=O)c(C#N)cc12	3.32
CC(=O)NC[C@H]1CN(c2ccc(-n3ccc(C#N)c3)c(F)c2)C(=O)O1	1.6
Cc1oc(-c2ccc(Cl)cc2)cc1C(=O)O	1.67
CC(=O)Nc1ccc(-c2ccccc2)n(CC(=O)NC(C(=O)C(F)(F)F)C(C)C)c1=O (centres undefined)	1.78
CC(NC(=O)C1(N)CCN(c2ncnc3[nH]ccc23)CC1)c1ccccc1 (centres undefined)	2.17
Oc1cc(-c2ccccc2)nc2ccccc12	2.54
Cc1ncc(-c2nc(Nc3ccc(C(N)=O)c(F)c3)ncc2F)n1C(C)C	3.14
CCCSc1c(C(=O)N(C)C2CCCCC2)cnn1-c1ccc(C(=O)O)cc1	0.59
C[C@@](O)(C(=O)Nc1ccc(S(=O)(=O)NCCN2CCOCC2)cc1Cl)C(F)(F)F	2.14
CN(C)C(=O)CC(NC(=O)C1(N)CCN(c2ncnc3[nH]ccc23)CC1)c1ccc(Cl)cc1 (centres undefined)	2.4
O=C(O)CCn1c2ccccc2c2ccccc21	0.6
